The IC50 is the midpoint of a concentration-inhibition curve.

The source of these data is ChEMBL document CHEMBL1141767, “Lignans from bark of Larix olgensis var. koreana” (J Nat Prod, 2005).

In brackets after ≈: the same amount, converted by molar mass.

Common to all, as to assay type: functional, cell-based
Test [1] in a line: Cytotoxicity against human SGH44 cells after 72 hrs by MTT assay. Particulars: SGH44, 72 h. In general terms: Tetrazolium dyes change colour on reduction, which living cells bring about.
For a further test, the system named is A549. Description: Cytotoxicity against human A549 cells after 72 hrs by MTT assay. The note with it: A549, 72 h.
The next test has as its system K562. Description: Cytotoxicity against human K562 cells after 72 hrs by MTT assay. The note with it: K562, 72 h.
Test [2] is described as follows: Cytotoxicity against human PC3M cells after 72 hrs by MTT assay. Particulars: PC-3M.
The next test deals with HCT-8. Description: Cytotoxicity against human HCT8 cells after 72 hrs by MTT assay. The note with it: HCT-8, 72 h.

For the molecule `COc1cc(C[C@@H]2CO[C@@H](c3ccc(O)c(OC)c3)[C@@H]2COC(=O)/C=C/c2ccc(O)cc2)ccc1O`, the IC50 in test [1] came to 21.4 µg/mL (≈ 42.2 µM); with A549 it was 33.8 µg/mL (≈ 66.7 µM); in the test on K562, 2.9 µg/mL (≈ 5.72 µM); in test [2] it was 28 µg/mL (≈ 55.3 µM); in the test on HCT-8 it was 32.9 µg/mL (≈ 64.9 µM).
